In US12370235B2, “Synthetic, non-natural antimicrobial peptides inspired by Staphylococcus auricularis delta toxin” (University of Saskatchewan, priority 2021, dated 2025):
Ends that are not written are not given here.

Assays:
[1] = test system: S. aureus ATCC 29213; test: MIC, broth dilution; format: cell-based, Staphylococcus aureus; conditions: Table 5; STIP3 variants, highest concentration 100 μg/mL
Outline: (§1)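 Peptides of 95% purity tested as 2-fold dilution series against bacteria diluted to OD 6×10^−4 in cation-adjusted Mueller Hinton broth. Standing cultures incubated overnight at 37° C; MIC is the lowest concentration with no visible growth.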

[2] = test system: S. aureus ATCC BAA-42 (MRSA SCCmec type VI); test: MIC, broth dilution; format: cell-based, Staphylococcus aureus; conditions: Table 5; STIP3 variants, highest concentration 100 μg/mL
Outline: as §1

[3] = test system: S. aureus ATCC BAA-2094 (MRSA SCCmec type V); test: MIC, broth dilution; format: cell-based, Staphylococcus aureus; conditions: Table 5; STIP3 variants, highest concentration 100 μg/mL
Outline: as §1

[4] = test system: S. aureus ATCC BAA-2313 (MRSA SCCmec type XI); test: MIC, broth dilution; format: cell-based, Staphylococcus aureus; conditions: Table 5; STIP3 variants, highest concentration 100 μg/mL
Outline: as §1

[5] = test system: S. aureus ATCC BAA-44 (MRSA SCCmec type I); test: MIC, broth dilution; format: cell-based, Staphylococcus aureus; conditions: Table 5; STIP3 variants, highest concentration 100 μg/mL
Outline: as §1

[6] = test system: S. aureus ATCC BAA-41 (MRSA SCCmec type II); test: MIC, broth dilution; format: cell-based, Staphylococcus aureus; conditions: Table 5; STIP3 variants, highest concentration 100 μg/mL
Outline: as §1

[7] = test system: S. aureus ATCC BAA-1683 (MRSA SCCmec type IV); test: MIC, broth dilution; format: cell-based, Staphylococcus aureus; conditions: Table 5; STIP3 variants, highest concentration 100 μg/mL
Outline: as §1

[8] = test system: S. aureus ATCC 33592 (MRSA SCCmec type III); test: MIC, broth dilution; format: cell-based, Staphylococcus aureus; conditions: Table 5; STIP3 variants, highest concentration 100 μg/mL
Outline: as §1

[9] = Circular dichroism spectroscopy; format: physicochemical; conditions: CD, 50% (v/v) TFE
From the text: The δ-toxins and the PSMs are characterized as α-helical peptides that form amyloid fibers^48. Although the propensity of individual peptides to form amyloids is correlated to their cytotoxicity^49, the amyloid form is not directly implicated in cell membrane disruption^50. […] CD spectroscopy was used to investigate the secondary structure of a subset of peptides within the collection (FIG. 4A, Table 5). The STIP variants adopted α-helical forms in 50% (v/v) trifluoroethanol (TFE), though unlike the full-length S. auricularis δ-toxin, they were unstructured in water. […] Specifically, peptides characterized by the greatest and least α-helical content in TFE had MICs above the highest tested threshold.
Circular dichroism spectroscopy. Peptides were dissolved in water at concentrations between 0.3 and 0.5 mg/mL. CD spectra were recorded on an Applied Photophysics Chirascan Plus CD spectrophotometer at room temperature in a 0.1 cm path-length quartz cuvette. Spectra were recorded from 180 to 260 nm.

[10] = test system: Mannheimia haemolytica ATCC 33393; test: MIC, broth dilution; format: cell-based; conditions: Table 11; highest concentration 25 μg/mL
Outline: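 Read-out is the lowest peptide concentration showing no growth after an overnight standing culture at 37 °C. Two-fold serial dilutions of 95%-pure peptide were tested against M. haemolytica ATCC 33393 at OD 6×10^−4 in cation-adjusted MH broth.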

[11] = test system: Candida lusitaniae AR 398; test: MIC, YPD broth, CDC and FDA AR Candida isolate panel; format: cell-based; conditions: Table 9 below the line: only 200 or 100 μg/mL tested; values reported as 100 are ≤100 μg/mL
Outline: (§2)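 Peptides of 95% purity were tested as 2-fold dilution series against yeast diluted to an optical density of […]. Cultures stood overnight at 37° C, with sterile water as control.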

[12] = test system: Kodamae ohmeri AR 396; test: as above; format: cell-based; conditions: Table 9 below the line: only 200 or 100 μg/mL tested; values reported as 100 are ≤100 μg/mL
Outline: as §2

[13] = test system: Candida krusei AR 397; test: as above; format: cell-based; conditions: Table 9 below the line: only 200 or 100 μg/mL tested; values reported as 100 are ≤100 μg/mL
Outline: as §2

[14] = test system: Candida duobushaemulonii AR 391; test: as above; format: cell-based; conditions: Table 9 below the line: only 200 or 100 μg/mL tested; values reported as 100 are ≤100 μg/mL
Outline: as §2

[15] = test system: Candida duobushaemulonii AR 394; test: as above; format: cell-based; conditions: Table 9 below the line: only 200 or 100 μg/mL tested; values reported as 100 are ≤100 μg/mL
Outline: as §2

[16] = test system: Candida duobushaemulonii AR 392; test: as above; format: cell-based; conditions: Table 9 below the line: only 200 or 100 μg/mL tested; values reported as 100 are ≤100 μg/mL
Outline: as §2

[17] = test system: Candida haemulonii AR 393; test: as above; format: cell-based; conditions: Table 9 below the line: only 200 or 100 μg/mL tested; values reported as 100 are ≤100 μg/mL
Outline: as §2

[18] = test system: Saccharomyces cerevisiae AR 399; test: as above; format: cell-based; conditions: Table 9 below the line: only 200 or 100 μg/mL tested; values reported as 100 are ≤100 μg/mL
Outline: as §2

[19] = test system: Candida haemulonii AR 395; test: as above; format: cell-based; conditions: Table 9 below the line: only 200 or 100 μg/mL tested; values reported as 100 are ≤100 μg/mL
Outline: as §2

[20] = test system: Saccharomyces cerevisiae AR 400; test: as above; format: cell-based; conditions: Table 9 below the line: only 200 or 100 μg/mL tested; values reported as 100 are ≤100 μg/mL
Outline: as §2

[21] = test system: C. albicans Y537; test: MIC, YPD broth; format: cell-based, Candida albicans; conditions: Table 8
[22] = test system: C. albicans MYA-2876; test: MIC, YPD broth; format: cell-based, Candida albicans; conditions: Table 8
Outline: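 Yeast cells were diluted in YPD broth, and 180 μl aliquots were mixed with 20 μl of peptide from 2-fold serial dilutions in flat-bottom 96-well microtitre plates. Wells receiving 20 μl sterile water served as controls. After standing incubation overnight at 37° C, the MIC was taken as the lowest peptide concentration with no visible microbial growth.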

[23] = test system: S. aureus / MRSA (ATCC MP-2 panel); format: cell-based, Staphylococcus aureus; conditions: MIC screen, in words
Method: In order to begin to characterize STIP3-1 and potential sites amenable to modification, an alanine scanning experiment was performed. A total of 16 peptides with single alanine substitutions were assessed to inform on the importance of individual residues to antimicrobial activity. […] Next a series of thirty STIP3-1 variants were designed, guided by the aforementioned alanine scan and a previous report that the central α-helical core of the S. aureus δ-toxin could be converted into AMP through the inclusion of additional lysine residues^39. The collection included ten members with single substitutions relative to STIP3-1 and others that incorporated a number of changes that were designed to increase overall and local cationic charge as well as hydrophobic character (Table 5). Each of the STIPs was screened, including STIP3-1 to STIP-31, for antibiotic activity against a methicillin-sensitive S. aureus test organism and a panel of 7 MRSA strains defined by distinct SCCmec genotypes (FIG. 2; ATCC MP-2).
Determination of minimum inhibitory concentrations. The MICs were measured for bioactive peptides identified from the initial screen. For bacterial studies, cation-adjusted Mueller Hinton (MH) broth was used as the growth medium whereas YPD was used for C. albicans. Bacterial cultures were diluted to a OD value of 6×10^−4 in MH broth and a 180 μl volume was mixed with 20 μl of peptide arrayed as 2-fold dilution series in a 96-well plate. For the positive control, 20 μl of sterile water was used. Plates were incubated as standing cultures overnight at 37° C. The lowest peptide concentration that resulted no observed microbial growth after an overnight treatment was defined as the MIC.

Substance	MIC S. aureus ATCC 29213 [1]	MIC S. aureus ATCC BAA 42 (VI) [2]	MIC S. aureus ATCC BAA 2094 (V) [3]	MIC S. aureus ATCC BAA 2313 (XI) [4]	MIC S. aureus ATCC BAA 44 (I) [5]	MIC S. aureus ATCC BAA 41 (II) [6]	MIC S. aureus ATCC BAA 1683 (IV) [7]	MIC S. aureus ATCC 33592 (III) [8]	MIC (μg/mL) M. haemolytica [10]	MIC (μg/mL) Candida lusitaniae AR 398 [11] [µg/mL]	MIC (μg/mL) Kodamae ohmeri AR 396 [12]	MIC (μg/mL) Candida krusei AR 397 [13]	MIC (μg/mL) Candida duobushaemulonii AR 391 [14]	MIC (μg/mL) Candida duobushaemulonii AR 394 [15]	MIC (μg/mL) Candida duobushaemulonii AR 392 [16]	MIC (μg/mL) Candida haemulonii AR 393 [17]	MIC (μg/mL) Saccharomyces cerevisiae AR 399 [18] [µg/mL]	MIC (μg/mL) Candida haemulonii AR 395 [19]	MIC (μg/mL) Saccharomyces cerevisiae AR 400 [20] [µg/mL]	MIC C. albicans MYA-2876 [22]	further results
TVGGLVKWILATVKKFA-NH2 [STIP3-28, TVGGLVKWILATVKKFA-NH2]	25 µg/mL	12.5 µg/mL	6.25 µg/mL	12.5 µg/mL	12.5 µg/mL	12.5 µg/mL	12.5 µg/mL	6.25 µg/mL	12.5 µg/mL	≤ 100	≤ 100 µg/mL	≤ 100 µg/mL	> (values below the line were determined using two concentrations of peptide 200 or 100 μg/mL)	> (values below the line were determined using two concentrations of peptide 200 or 100 μg/mL)	> (values below the line were determined using two concentrations of peptide 200 or 100 μg/mL)	> (values below the line were determined using two concentrations of peptide 200 or 100 μg/mL)	≤ 100	≤ 100 µg/mL	≤ 100	12.5 µg/mL	α helicity (%) [9]: 75%; MIC C. albicans Y537 [21]: 25 µg/mL
TVGVLVKWILNVVAKFA [STIP3-24, TVGVLVKWILNVVAKFA]	> (no inhibition was observed at the highest concentration of peptide tested: 100 μg/mL for the STIP3 variants)	> (no inhibition was observed at the highest concentration of peptide tested: 100 μg/mL for the STIP3 variants)	> (no inhibition was observed at the highest concentration of peptide tested: 100 μg/mL for the STIP3 variants)	> (no inhibition was observed at the highest concentration of peptide tested: 100 μg/mL for the STIP3 variants)	> (no inhibition was observed at the highest concentration of peptide tested: 100 μg/mL for the STIP3 variants)	> (no inhibition was observed at the highest concentration of peptide tested: 100 μg/mL for the STIP3 variants)	> (no inhibition was observed at the highest concentration of peptide tested: 100 μg/mL for the STIP3 variants)	> (no inhibition was observed at the highest concentration of peptide tested: 100 μg/mL for the STIP3 variants)	> (> symbol indicates that no inhibition was observed at the highest concentration of peptide tested: 25 μg/mL)	≤ 100	> (values below the line were determined using two concentrations of peptide 200 or 100 μg/mL)	> (values below the line were determined using two concentrations of peptide 200 or 100 μg/mL)	> (values below the line were determined using two concentrations of peptide 200 or 100 μg/mL)	> (values below the line were determined using two concentrations of peptide 200 or 100 μg/mL)	> (values below the line were determined using two concentrations of peptide 200 or 100 μg/mL)	> (values below the line were determined using two concentrations of peptide 200 or 100 μg/mL)	≤ 100	> (values below the line were determined using two concentrations of peptide 200 or 100 μg/mL)	≤ 100	> (> symbol indicates that no inhibition was observed at the highest concentration of peptide tested: 100 μg/mL)	inhibition of S. aureus [23]: incapable of inhibiting S. aureus
